Laboratory results from publication PMC6037691, “Selenazolyl-hydrazones as Novel Selective MAO Inhibitors With Antiproliferative and Antioxidant Activities: Experimental and In-silico Studies” (Frontiers in Chemistry, 2018).

What was measured:
[1] = tested on: A549 (non-small cell lung); assay: Antiproliferative activity, A549; format: cell-based, human; conditions: Homo sapiens
Protocol: (§1) The in vitro antiproliferative activity of investigated compounds was evaluated against six human solid tumor cell lines: A549 (non-small cell lung), HBL-100, (breast), HeLa (cervix), SW1573 (non-small cell lung), as drug sensitive lines, T-47D (breast) and WiDr (colon) as drug resistant lines. These cell lines were a kind gift from Prof. G. J. Peters (VU Medical Center, Amsterdam, The Netherlands). For selectivity studies, the human fibroblasts BJ-hTert cell line was used, which was obtained from Dr. R. Freire (HUC, Tenerife, Canary Islands). Cells were kept in culture medium under standard conditions: RPMI 1640 medium, fetal bovine serum (5%), glutamine (2 mM), penicillin G (100 units/mL) and streptomycin (0.1 mg/mL). Antiproliferative tests were conducted as described earlier (Skehan et al., [1990]; Miranda et al., [2006]). Tested compounds were dissolved in DMSO at an initial concentration of 40 mM. DMSO was used as negative control (0.25% v/v). Antiproliferative activity of the compounds was expressed as GI50, which is the concentration of the compound that inhibits 50% of the culture growth.

HBL-100 (breast) = assay: Antiproliferative activity, HBL-100; format: cell-based, human; conditions: Homo sapiens
Protocol: as §1

HeLa (cervix) = assay: Antiproliferative activity, HeLa; format: cell-based, human; conditions: Homo sapiens
Protocol: as §1

[2] = tested on: SW1573 (non-small cell lung); assay: Antiproliferative activity, SW1573; format: cell-based, human; conditions: Homo sapiens
Protocol: as §1

T-47D (breast) = assay: Antiproliferative activity, T-47D; format: cell-based, human; conditions: for GI50: Homo sapiens, T47D
Protocol: as §1

WiDr (colon) = assay: Antiproliferative activity, WiDr; format: cell-based, human; conditions: for GI50: Homo sapiens
Protocol: as §1

[3] = tested on: human fibroblasts BJ-hTert cell line; assay: Selectivity, non-transformed fibroblasts BJ-hTert; format: cell-based; conditions: Fibroblast; BJ-hTert normal human cell line; concentrations up to 100 μM
Protocol: as §1

MAO A = molecular target: T1, MAO A (Homo sapiens, UniProt P21397); assay: MAO A inhibition, discontinuous fluorimetric kynuramine assay; format: biochemical; conditions: for inhibition at 1 µM: 1 μM inhibitor, mean ± SD, n = 2, normalized to control
T1 construct: purchased Sigma-Aldrich
T1 sequence (P21397 1-527): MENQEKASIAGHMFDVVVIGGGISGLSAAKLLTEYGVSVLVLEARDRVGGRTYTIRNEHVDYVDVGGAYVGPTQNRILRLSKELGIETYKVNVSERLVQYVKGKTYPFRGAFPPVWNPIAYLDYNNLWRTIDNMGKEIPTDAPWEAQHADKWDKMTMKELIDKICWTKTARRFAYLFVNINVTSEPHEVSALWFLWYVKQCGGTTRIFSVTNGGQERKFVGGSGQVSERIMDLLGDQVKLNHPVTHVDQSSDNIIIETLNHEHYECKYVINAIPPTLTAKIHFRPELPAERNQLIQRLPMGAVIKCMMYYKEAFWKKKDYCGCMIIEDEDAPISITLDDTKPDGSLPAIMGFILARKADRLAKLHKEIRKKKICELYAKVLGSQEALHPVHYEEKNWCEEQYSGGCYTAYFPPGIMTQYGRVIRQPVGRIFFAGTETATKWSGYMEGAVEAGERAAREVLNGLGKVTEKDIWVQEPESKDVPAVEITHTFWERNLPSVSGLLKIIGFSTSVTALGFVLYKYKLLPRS
Protocol: (§2) MAO A and B inhibition capacities were investigated using a discontinuous fluorimetric assay (Meiring et al., [2013]) as described previously by using human recombinant membrane-bound MAO purchased from Sigma-Aldrich (Affini et al., [2018]). Briefly, remained enzyme activity with inhibitor, either 1 μM (one-point) or concentrations ranging from 0.0001 to 10 μM, was assessed in the presence of kynuramine [2 × KM, KM = 20 μM (MAO A), KM = 30 μM (MAO B)] in potassium phosphate buffer (pH 7.4). Reactions were started by addition of enzyme and stopped by manual addition of sodium hydroxide (2 N) after 20 min. Enzyme activity was determined by detection of 4-hydroxyquinoline (λEx = 320 nm, λEm = 405 nm). Data were analyzed using GraphPad PRISM 6. For one-point measurements data were calculated as percentage of control and expressed as mean ± standard deviation (%). […] Data were obtained from two (one-point measurements) or at least three (IC50 values) independent experiments, each performed in duplicates.

MAO B = molecular target: T2, MAO B (Homo sapiens, UniProt P27338); assay: MAO B inhibition, discontinuous fluorimetric kynuramine assay; format: biochemical; conditions: for inhibition at 1 µM: 1 μM inhibitor, mean ± SD, n = 2, normalized to control
T2 construct: purchased Sigma-Aldrich
T2 sequence (P27338 1-520): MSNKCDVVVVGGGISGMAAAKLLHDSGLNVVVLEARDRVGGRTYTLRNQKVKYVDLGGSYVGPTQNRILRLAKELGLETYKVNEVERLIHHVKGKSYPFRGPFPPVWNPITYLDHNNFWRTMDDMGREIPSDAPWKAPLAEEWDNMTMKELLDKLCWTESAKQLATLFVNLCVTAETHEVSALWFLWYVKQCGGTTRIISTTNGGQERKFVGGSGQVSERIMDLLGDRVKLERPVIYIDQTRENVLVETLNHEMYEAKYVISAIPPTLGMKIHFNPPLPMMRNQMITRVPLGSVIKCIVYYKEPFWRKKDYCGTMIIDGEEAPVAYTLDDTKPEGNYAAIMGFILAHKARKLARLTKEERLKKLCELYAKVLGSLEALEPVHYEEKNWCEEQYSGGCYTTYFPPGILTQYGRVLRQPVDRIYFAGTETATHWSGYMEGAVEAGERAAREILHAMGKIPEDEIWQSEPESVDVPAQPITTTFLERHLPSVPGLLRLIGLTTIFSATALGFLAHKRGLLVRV
Protocol: as §2

[4] = DPPH scavenging antioxidant assay; conditions: concentration providing 50% of radicals scavenging activity; mean ± SD, n = 3
Protocol: The experiments were performed according to the literature protocol (Prior et al., [2005]). All tested compounds were initially dissolved in DMSO. The initial concentration of DPPH in methanol was 6.58 × 10^−5 M. A volume of 140 μL of DPPH solution was placed into a 96-well microplate, and then 10 μL solution of the tested compounds was added. Pure DMSO (10 μL) was used as the control. The absorbance at 517 nm was measured after 30 min period of incubation in the dark at 25°C. The Equation (1) was used for calculation of the scavenging activity:
(1) Scavenging activity (%)=Acontrol- Asample/Acontrol×100
where Asample and Acontrol refer to the absorbances at 517 nm of the sample and control, respectively. IC50 values were calculated from the graph of scavenging activity against the concentrations of the samples. IC50 represents the total antioxidant concentration of the sample which decreases the amount of the initial DPPH radical by 50%. Ascorbic acid (vitamin C) was used as positive control (concentration range 10–500 μM).

[5] = Total antioxidant capacity (TAOC), modified phosphomolybdenum method; conditions: concentration providing 0.500 of absorbance at 695 nm; mean ± SD, n = 3
Protocol: (§3) Volume of 0.4 mL of sample solution (50–1,000 μM) was mixed with 1.6 mL of reagent solution [0.6 M H2SO4, 28 mM Na3PO4, and 4 mM (NH4)2MoO4] and resulting mixtures were incubated at 95°C for 90 min. The cooled reaction mixtures were then centrifuged for 10 min (3,000 rpm). The absorbance of the supernatant solution was measured, 1 h after centrifugation, at 695 nm against reagent solution as blank. An increased absorbance in reading in both assays indicated increased antioxidant power, expressed as EC50 values (the sample concentration giving absorbance of 0.500 from the graph of absorbance at 700 nm or 695 nm against compound concentration) (Prieto et al., [1999]).

[6] = Total reducing power (TRP), modified potassium ferricyanide reduction method; conditions: concentration providing 0.500 of absorbance at 700 nm; mean ± SD, n = 3
Protocol: The mixture containing 0.5 mL of phosphate buffer (0.2 M, pH = 6.6), 0.5 mL of K3[Fe(CN)6] (1%; w/v) and 0.5 mL of the samples (100–1,500 μM) was incubated at 50°C for 20 min. A volume of 0.5 mL of trichloroacetic acid (TCA, 10%; w/v), 0.5 mL of Milli-Q water and 0.5 mL of FeCl3 (0.1%; w/v) was added, followed by intensive vortexing. The absorbance of the resulting mixture was measured after 60 min at 700 nm using phosphate buffer as blank (Oyaizu, [1986]).
as §3

[7] = tested on: six human solid tumor cell lines; assay: Antiproliferative activity, panel as a whole; format: cell-based; design: key: moderate activity (GI50 = 10–100 μM); good activity (GI50 = 1–10 μM); inactive (GI50 > 100 μM)
Protocol: as §1

[8] = mean, 95% CI, at least three experiments

Structure (SMILES) | GI50 [1] [µM] | GI50 (HBL-100 (breast)) [µM] | GI50 (HeLa (cervix)) [µM] | GI50 [2] [µM] | GI50 (T-47D (breast)) [µM] | GI50 (WiDr (colon)) [µM] | GI50 [3] [µM] | inhibition at 1 µM (MAO A) [%] | inhibition at 1 µM (MAO B) [%] | IC50 [4] [µM] | EC50 [5] [µM] | EC50 [6] [µM] | GI50 (T-47D (breast); T-47D) [µM] | antiproliferative activity class against five cell lines ([7]; five cell lines of the six) | melting point [°C] | IC50 (MAO A; [8]) [nM] | IC50 (MAO B; [8]) [nM] | antiproliferative activity class T-47D (T-47D (breast); T-47D) | antiproliferative activity class WiDr (WiDr (colon)) | antiproliferative activity class against all six cell lines ([7]; all six cell lines)
O=c1[nH]cc(F)c(=O)[nH]1 [5-fluorouracil, reference compound] | > 100 | 4 ± 0.7 | 15 ± 4.7 | 4.6 ± 1.5 | 47 ± 18 | 49 ± 6.7 | 5.5 ± 0.5 | – | – | – | – | – | – | – | – | – | – | – | – | –
Cc1ccc(-c2c[se]c(NN=Cc3ccccc3)n2)cc1 [Compound 1-Me, 2-(2-benzylidenehydrazinyl)-4-(p-tolyl)-1,3-selenazole] | > 100 | > 100 | > 100 | 47 ± 3 | – | > 100 | > 100 | 12.7 ± 3.5 | 23.4 ± 17.1 | 45.1 ± 6.53 | 603 ± 61 | 966 ± 88 | > 100 | inactive | 174 to 176 | – | – | – | – | –
O=[N+]([O-])c1ccc(C=NNc2nc(-c3ccccc3)c[se]2)cc1 [Compound 4, 2-(2-(4-nitrobenzylidene)hydrazinyl)-4-phenyl-1,3-selenazole] | 16 ± 3.5 | > 100 | 31 ± 8.5 | 23 ± 1.2 | – | 6.9 ± 1.3 | > 100 | 71.9 ± 3.5 | 96.3 ± 0.5 | 44.8 ± 2.3 | 433 ± 43 | 376 ± 51 | 6.3 ± 1.1 | – | – | 258 | 73 | good activity (good activity (GI50 = 1–10 μM)) | good activity (good activity (GI50 = 1–10 μM)) | –
Cc1ccc(-c2c[se]c(NN=Cc3ccc([N+](=O)[O-])cc3)n2)cc1 [Compound 4-Me, 2-(2-(4-nitrobenzylidene)hydrazinyl)-4-(p-tolyl)-1,3-selenazole] | > 100 | > 100 | > 100 | > 100 | – | > 100 | > 100 | 22.1 ± 2.1 | 48.1 ± 2.9 | 40.1 ± 4.7 | 579 ± 51 | 495 ± 48 | > 100 | – | 228 to 230 | – | – | – | – | inactive
COc1ccc(-c2c[se]c(NN=Cc3ccc([N+](=O)[O-])cc3)n2)cc1 [Compound 4-OMe, 4-(4-methoxyphenyl)-2-(2-(4-nitrobenzylidene)hydrazinyl)-1,3-selenazole] | 16 ± 5.3 | 47 ± 13 | 33 ± 10 | 26 ± 17 | – | > 100 | > 100 | 49.4 ± 1.3 | 42.5 ± 19 | 79.2 ± 3.9 | 645 ± 53 | 398 ± 44 | 66 ± 17 | – | 208 to 211 | – | – | – | – | –
O=C1O[C@H]([C@@H](O)CO)C(O)=C1O [vitamin C, Ascorbic acid, reference compound] | – | – | – | – | – | – | – | – | – | 79.1 ± 1.8 | 140 ± 10 | 155 ± 39 | – | – | – | – | – | – | – | –
